From patent US8642633B2, “Di-substituted amides for enhancing glutamatergic synaptic responses” (Cortex Pharmaceutical, Inc., priority 2007, dated 2014) come the findings set out here.

Data set [1] has as its system AMPA receptor. Description: In vivo electrophysiology: field EPSP amplitude in the dentate gyrus of anesthetized animals. On the set-up: species or system rat. As to the method: A. Enhancement of AMPA Receptor Function In Vivo.
Synaptic responses mediated by AMPA receptors are increased according to the method of the invention, using the compounds described herein.
(§1) The electrophysiological effects of the invention compounds were tested in vivo in anesthetized animals according to the following procedures. Animals are maintained under anesthesia by phenobarbital administered using a Hamilton syringe pump. Stimulating and recording electrodes are inserted into the perforant path and dentate gyrus of the hippocampus, respectively. Once electrodes are implanted, a stable baseline of evoked responses are elicited using single monophasic pulses (100 μs pulse duration) delivered at 3/min to the stimulating electrode. Field EPSPs are monitored until a stable baseline is achieved (about 20-30 min), after which a solution of test compound is injected intraperitoneally and evoked field potentials are recorded. Evoked potentials were recorded for approximately 2 h following drug administration or until the amplitude of the field EPSP returns to baseline. In the latter instance, it is common that an iv administration is also carried out with an appropriate dose of the same test compound. Invention compounds were assayed in the in vivo electrophysiology assay described above and data for representative test compounds is shown in column 1 in Table 1.
The electrophysiological effects of invention compounds were tested in vivo in anesthetized animals according to the following procedures.
as §1, with “Animals” for “The electrophysiological effects of the invention compounds were tested in vivo in anesthetized animals according to the following procedures. Animals”, “are” for “were”, “compound.” for “compound. Invention compounds were assayed in the in vivo electrophysiology assay described above and data for representative test compounds is shown in column 1 in Table 1.”

Data set [2] deals with d-amphetamine stimulated locomotion in mice. Put plainly: Inhibition of d-amphetamine stimulated locomotion. Type of data set: in vivo. As to conditions: Mus musculus, ip, 18 mpk i.p., d-amphetamine 2 mg/kg. As for the experimental part:
B. Behavioral Testing: Inhibition of d-Amphetamine Stimulated Locomotion
The ability of the invention compounds to inhibit d-Amphetamine stimulated locomotor activity was assayed according to the following procedure. Male CD1 mice, 25-30 gm body weight, were brought into the experimental room and allowed at least 30 min of acclimation. Each mouse was placed into the testing enclosure with an infrared beam array that automatically monitors the animal's activity. Mice were habituated in the testing enclosure for 20 min, and then returned to their home cage. Mice were dosed intraperitoneally with test compound in appropriate vehicle 5 minutes before d-Amphetamine injection (2 mpk). Ten minutes after d-Amphetamine injection, mice were tested for locomotor activity for a total of […]. The data was computer collected and expressed as “arbitrary movement units.” All data were analyzed by comparing the groups treated with the test compound to the vehicle control group. The data shown is the % inhibition of hyperactivity induced by acute administration of 2 mg/kg d-amphetamine in mice. The compounds tested produced a statistically significant inhibition of d-amphetamine stimulated locomotion.
Male CD1 mice, 25-30 gm body weight, were brought into the experimental room and allowed at least 30 min of acclimation. Each mouse was placed into the testing enclosure with an infrared beam array that automatically monitors the animal's activity. Mice were habituated in the testing enclosure for 20 min, and then returned to their home cage. Mice were dosed intraperitoneally with test compound in appropriate vehicle 5 minutes before d-Amphetamine injection. Ten minutes after d-Amphetamine injection, mice were tested for locomotor activity for a total of 15 minutes. The data was computer collected and expressed as “arbitrary movement units.” All data were analyzed by comparing the groups treated with the test compound to the vehicle control group.

[3] abbreviates: dosed intravenously (footnote 3).

In general, melting point refers to the temperature, or range, at which the solid turns liquid. Take `CN(C(=O)c1ccc2nonc2c1)[C@H]1CC[C@@H](C#N)CC1` [Example 10, N-(cis-4-Cyanocyclohexyl)-N-methyl-[2,1,3]-benzoxadiazole-5-carboxamide]: the melting point was in the range of 222 to 223 °C.

The compound `O=C(NC1CCCOC1)c1ccc2nonc2c1` (stereo not shown) [Example 15, N-(Tetrahydro-2H-pyran-3-yl)-[2,1,3]-benzoxadiazole-5-carboxamide] returned a melting point of 204 to 205 °C.

The compound `CN(C(=O)c1ccc2nonc2c1)C1CCCC(F)(F)C1` (stereo not shown) [Example 62, N-Methyl-N-(3,3-difluorocyclohexyl)-[2,1,3]-benzoxadiazole-5-carboxamide] gave a melting point of 119 to 120 °C.

Turning to `CN(C(=O)c1ccc2nonc2c1)C1CCOC(=O)C1` (stereo not shown) [Example 68, N-Methyl-N-(2-oxotetrahydro-2H-pyran-4-yl)-[2,1,3]-benzoxadiazole-5-carboxamide], the melting point is 169 to 171 °C.

Regarding `CN(CC1CCCCC1)C(=O)c1ccc2nonc2c1` [Example 19, N-(Cyclohexylmethyl)-N-methyl-[2,1,3]-benzoxadiazole-5-carboxamide], the melting point lay in the range of 71 to 72 °C.

Compound `CN(C(=O)c1ccc2nccnc2c1)C1CCOCC1` [Example 36, N-Methyl-N-tetrahydro-2H-pyran-4-ylquinoxaline-6-carboxamide] gave a melting point of 130 to 131 °C. Also, in data set [1] (setting [3]), the “In vivo Electrophysiology: % increase in the amplitude of the field EPSP in the dentate gyrus of rat” value (“In vivo Electrophysiology: % increase” for short) amounted to 5%^3.

As usually defined, the inhibition in vivo is how much of the control response was suppressed. The low end stands for a weak effect, the high end for a strong effect. `CN(C(=O)c1ccc2nonc2c1)C1CCOCC1` [Example 12, N-Methyl-N-tetrahydro-2H-pyran-4-yl-[2,1,3]-benzoxadiazole-5-carboxamide] came in with an inhibition in vivo at 18 mg/kg in data set [2] of 66%. Further, in data set [1] (10mpk i.p.), the “In vivo Electrophysiology: % increase” value turned out to be 20%.

`CN(C(=O)c1ccc2nonc2c1)C1CCN(C(=O)OC(C)(C)C)CC1` [Example 26, tert-Butyl-4-[([2,1,3]-benzoxadiazol-5-ylcarbonyl)(methyl)amino]piperidine-1-carboxylate]: the melting point fell in the range of 98 to 100 °C.

On to `CN(C(=O)c1ccc2nonc2c1)[C@H]1CC[C@H](C#N)CC1` [Example 11, N-(trans-4-cyanocyclohexyl)-N-methyl-[2,1,3]-benzoxadiazole-5-carboxamide], for which, in data set [1] (10mpk i.p.), the “In vivo Electrophysiology: % increase” value is reported as 12%.

In the case of `CCN(C(=O)c1ccc2nonc2c1)C1CCCCC1` [Example 18, N-Cyclohexyl-N-ethyl-[2,1,3]-benzoxadiazole-5-carboxamide], the melting point was in the range of 51 to 52 °C.

Take `CN(C(=O)c1ccc2nonc2c1)C1CCSCC1` [Example 33, N-Methyl-N-(tetrahydro-2H-thiopyran-4-yl)-[2,1,3]-benzoxadiazole-5-carboxamide]: the “In vivo Electrophysiology: % increase” value in data set [1] (setting [3]) is given as 16%^3.

As for `O=C(c1ccc2nonc2c1)N(C1CCOCC1)C1CC1` [Example 24, N-Cyclopropyl-N-tetrahydro-2H-pyran-4-yl-[2,1,3]-benzoxadiazole-5-carboxamide], the melting point lay within 108 to 109 °C.

`O=C(c1ccc2nonc2c1)N(CC(F)(F)F)C1CCOCC1` [Example 25, N-Tetrahydro-2H-pyran-4-yl-N-(2,2,2-trifluoroethyl)-[2,1,3]-benzoxadiazole-5-carboxamide] came in with a melting point of 134 to 135 °C. For the same compound, in data set [1] (setting [3]), the “In vivo Electrophysiology: % increase” value is recorded as 10%^3.

Take `O=C(c1ccc2nccnc2c1)N1CCCCC1` [CX516, 1-(quinoxalin-6-ylcarbonyl)piperidine, reference compound]: the “increase in amplitude of the field EPSP” value in data set [1] (rat dentate gyrus, 50 mg/kg i.p.) was 9%.

Consider `CN(C(=O)c1ccc2nonc2c1)C1CC=C(F)CC1` (stereo not shown) [Example 41, N-(4-fluorocyclohex-3-en-1-yl)-N-methyl-[2,1,3]-benzoxadiazole-5-carboxamide], for which the melting point is 117 to 118 °C. This compound also registered an inhibition in vivo at 18 mg/kg in data set [2] of 67%. The “In vivo Electrophysiology: % increase” value in data set [1] (10mpk i.p.) is listed as 18%.

Take `CN(C(=O)c1ccc2nonc2c1)[C@H]1CC[C@H](n2ncnn2)CC1` [Example 56, N-Methyl-N-[trans-4-(2H-tetrazol-2-yl)cyclohexyl]-[2,1,3]-benzoxadiazole-5-carboxamide]: in data set [1] (10mpk i.p.), the “In vivo Electrophysiology: % increase” value is on record as 19%.

`CCN(C(=O)c1ccc2nonc2c1)C1CCOCC1` [Example 17, N-Ethyl-N-tetrahydro-2H-pyran-4-yl-[2,1,3]-benzoxadiazole-5-carboxamide] showed a melting point of 102 to 104 °C. Besides, at 18 mg/kg the inhibition in vivo in data set [2] was 23%. In addition, the “In vivo Electrophysiology: % increase” value in data set [1] (10mpk i.p.) is 12%.

In the case of `O=C(NC1CCOC(O)C1)c1ccc2nonc2c1` (stereo not shown) [Example 66, N-(2-Hydroxytetrahydro-2H-pyran-4-yl)-[2,1,3]-benzoxadiazole-5-carboxamide], the melting point is 91 to 92 °C.

With `CO[C@H]1CC[C@H](N(C)C(=S)c2ccc3nonc3c2)CC1` [Example 54, N-(trans-4-Methoxycyclohexyl)-N-methyl-[2,1,3]-benzoxadiazole-5-carbothioamide], the “In vivo Electrophysiology: % increase” value in data set [1] (setting [3]) came out at 18%^3.

In the case of `CO[C@H]1CC[C@H](N(C)C(=O)c2ccc3nonc3c2)CC1` [Example 53, N-(trans-4-Methoxycyclohexyl)-N-methyl-[2,1,3]-benzoxadiazole-5-carboxamide], the inhibition in vivo at 18 mg/kg in data set [2] was found to be 94%. Besides, the “In vivo Electrophysiology: % increase” value in data set [1] (10mpk i.p.) worked out at 17%.

As to `CN(C(=O)c1ccc2nonc2c1)C1CCCCC1(F)F` (stereo not shown) [Example 65, N-Methyl-N-(2,2-difluorocyclohexyl)-[2,1,3]-benzoxadiazole-5-carboxamide], the melting point lay in the range of 101 to 102 °C.

For `CN1CCC(N(C)C(=O)c2ccc3nonc3c2)CC1` [Example 28, N-Methyl-N-(1-methylpiperidin-4-yl)-[2,1,3]-benzoxadiazole-5-carboxamide], the melting point is more than 260 °C.

`CN(C(=O)c1ccc2nonc2c1)[C@H]1CC[C@H](O)CC1` [Example 51, N-(4-trans-Hydroxycyclohexyl)-N-methyl-[2,1,3]-benzoxadiazole-5-carboxamide] displayed an inhibition in vivo at 18 mg/kg in data set [2] of 100%. Also, the “In vivo Electrophysiology: % increase” value in data set [1] (10mpk i.p.) stood at 21%.

Consider `CN(C(=O)c1ccc2nonc2c1)C1CCCC1` [Example 5, N-Cyclopentyl-N-methyl-[2,1,3]-benzoxadiazole-5-carboxamide], for which the melting point was in the range of 110 to 111 °C. Moreover, the “In vivo Electrophysiology: % increase” value in data set [1] (10mpk i.p.) was 15%.

On to `CN(Cc1ccccc1)C(=O)c1ccc2nonc2c1` [Example 20, N-Benzyl-N-methyl-[2,1,3]-benzoxadiazole-5-carboxamide], for which the melting point lay within 105 to 106 °C.

For the compound `CN(C(=O)c1ccc2nonc2c1)C1CCOC(O)C1` (stereo not shown) [Example 69, N-(2-Hydroxytetrahydro-2H-pyran-4-yl)-N-methyl-[2,1,3]-benzoxadiazole-5-carboxamide], the melting point was less than 90 °C.

For `CN(C(=O)c1ccc2nonc2c1)[C@@H]1CCOC1` [Example 73, N-Methyl-N—(R)-tetrahydrofuran-3-yl-[2,1,3]-benzoxadiazole-5-carboxamide], the “In vivo Electrophysiology: % increase” value in data set [1] (10mpk i.p.) is reported as 13%.
